Target: Protein kinase C alpha type (Homo sapiens, UniProt P17252)
Assay: Inhibition of Protein kinase C alpha

| Compound | IC50 [nM] |
| --- | --- |
| O=C(N[C@@H]1CS(=O)(=O)CCCC1OC(=O)c1ccc(C(=O)C2C(O)=CC=CC2C(=O)O)c(O)c1)c1ccc(O)cc1 (stereo not given in full) | 9.6 |
| O=C(N[C@@H]1COCCCC1OC(=O)c1ccc(C(=O)C2C(O)=CC=CC2C(=O)O)c(O)c1)c1ccc(O)cc1 (stereo not given in full) | 6.7 |

These reach a lower IC50. Values come first.

| IC50 [nM] | Compound |
| --- | --- |
| 3.3 | O=C(N[C@@H]1CSCCCC1OC(=O)c1ccc(C(=O)C2C(O)=CC=CC2C(=O)O)c(O)c1)c1ccc(O)cc1 (stereo not given in full) |
| 0.27 | O=C(N[C@@H]1CCCCCC1OC(=O)c1ccc(C(=O)C2C(O)=CC=CC2C(=O)O)c(O)c1)c1ccc(O)cc1 (stereo not given in full) |
| 0.074 | O=C(N[C@@H]1CNCCC[C@H]1OC(=O)c1cc(O)c(C(=O)c2c(O)cccc2C(=O)O)c(O)c1)c1ccc(O)cc1 [Acyclic Balanol Analog (-)-1] |
